In ChEMBL document CHEMBL1137790, “Octahydropyrrolo[3,4-c]pyrrole: a diamine scaffold for construction of either alpha4beta2 or alpha7-selective nicotinic acetylcholine receptor (nAChR) ligands. Substitutions that switch subtype selectivity” (J Med Chem, 2009):

Columns and labels:
[1] = target: T1, Neuronal acetylcholine receptor subunit alpha-7 (Homo sapiens, UniProt P36544); assay: Agonist activity at human recombinant alpha7 nicotinic acetylcholine receptor expressed in xenopus laevis oocytes at 100 uM by parallel oocyte electrophysiological assay relative to acetylcholine; format: functional, cell-based
[2] = target: T1, Neuronal acetylcholine receptor subunit alpha-7; assay: Agonist activity at human recombinant alpha7 nicotinic acetylcholine receptor expressed in xenopus laevis oocytes by parallel oocyte electrophysiological assay; format: functional, cell-based
[3] = species: Rattus norvegicus; assay: Selectivity ratio of Ki for alpha7 nicotinic acetylcholine receptor to Ki for alpha4beta2 nicotinic acetylcholine receptor in rat brain minus cerebellum membrane; format: tissue-based
[4] = target: Neuronal acetylcholine receptor; alpha4/beta2 (Rattus norvegicus, UniProt P09483+P12390); assay: Displacement of [3H]cytisine from alpha4beta2 nicotinic acetylcholine receptor in rat brain minus cerebellum membrane; format: tissue-based
[5] = target: Neuronal acetylcholine receptor subunit alpha-7 (Rattus norvegicus, UniProt Q05941); assay: Displacement of [3H]A585539 from alpha7 nicotinic acetylcholine receptor in rat brain minus cerebellum membrane; format: tissue-based
[6] = target: T2, Neuronal acetylcholine receptor; alpha4/beta2 (Homo sapiens, UniProt P17787+P43681); assay: Agonist activity at human recombinant alpha4beta2 nicotinic acetylcholine receptor expressed in HEK293 cells assessed as changes in intracellular calcium level at 100 uM by FLIPR relative to nicotine; format: functional, cell-based
[7] = target: T2, Neuronal acetylcholine receptor; alpha4/beta2; assay: Agonist activity at human recombinant alpha4beta2 nicotinic acetylcholine receptor expressed in HEK293 cells assessed as changes in intracellular calcium level by FLIPR; format: functional, cell-based

Chain of Neuronal acetylcholine receptor; alpha4/beta2 (Rattus norvegicus, UniProt P09483+P12390) (P09483 whole entry): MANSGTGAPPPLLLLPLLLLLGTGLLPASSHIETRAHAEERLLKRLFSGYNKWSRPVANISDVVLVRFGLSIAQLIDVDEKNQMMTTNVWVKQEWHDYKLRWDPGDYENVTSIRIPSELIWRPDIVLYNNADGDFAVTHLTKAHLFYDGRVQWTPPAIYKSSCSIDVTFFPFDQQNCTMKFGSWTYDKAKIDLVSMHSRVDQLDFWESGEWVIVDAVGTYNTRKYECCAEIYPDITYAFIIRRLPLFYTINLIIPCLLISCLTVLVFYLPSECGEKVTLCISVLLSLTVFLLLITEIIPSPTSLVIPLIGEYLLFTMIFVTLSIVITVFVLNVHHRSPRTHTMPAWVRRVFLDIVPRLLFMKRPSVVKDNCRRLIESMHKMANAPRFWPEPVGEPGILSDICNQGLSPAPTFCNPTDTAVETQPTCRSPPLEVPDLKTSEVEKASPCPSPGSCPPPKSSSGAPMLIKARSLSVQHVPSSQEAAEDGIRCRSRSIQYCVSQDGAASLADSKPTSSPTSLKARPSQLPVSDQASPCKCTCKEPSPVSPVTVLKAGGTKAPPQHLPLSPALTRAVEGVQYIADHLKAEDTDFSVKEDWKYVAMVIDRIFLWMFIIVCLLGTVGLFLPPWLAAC
Chain of Neuronal acetylcholine receptor; alpha4/beta2 (Rattus norvegicus, UniProt P09483+P12390) (P12390 whole entry): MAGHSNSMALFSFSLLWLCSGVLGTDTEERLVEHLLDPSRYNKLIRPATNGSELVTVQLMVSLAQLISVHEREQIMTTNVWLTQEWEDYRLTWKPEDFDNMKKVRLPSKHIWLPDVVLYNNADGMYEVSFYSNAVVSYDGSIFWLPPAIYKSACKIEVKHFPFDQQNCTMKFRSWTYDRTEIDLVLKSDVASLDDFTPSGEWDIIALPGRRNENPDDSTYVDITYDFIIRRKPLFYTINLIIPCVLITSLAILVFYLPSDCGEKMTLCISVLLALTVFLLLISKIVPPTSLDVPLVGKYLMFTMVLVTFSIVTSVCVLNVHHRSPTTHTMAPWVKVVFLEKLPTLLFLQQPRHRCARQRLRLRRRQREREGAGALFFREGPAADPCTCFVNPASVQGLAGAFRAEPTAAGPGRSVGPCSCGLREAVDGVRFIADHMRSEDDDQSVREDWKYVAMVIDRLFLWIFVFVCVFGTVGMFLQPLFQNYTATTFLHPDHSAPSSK
T1 sequence (P36544 whole entry): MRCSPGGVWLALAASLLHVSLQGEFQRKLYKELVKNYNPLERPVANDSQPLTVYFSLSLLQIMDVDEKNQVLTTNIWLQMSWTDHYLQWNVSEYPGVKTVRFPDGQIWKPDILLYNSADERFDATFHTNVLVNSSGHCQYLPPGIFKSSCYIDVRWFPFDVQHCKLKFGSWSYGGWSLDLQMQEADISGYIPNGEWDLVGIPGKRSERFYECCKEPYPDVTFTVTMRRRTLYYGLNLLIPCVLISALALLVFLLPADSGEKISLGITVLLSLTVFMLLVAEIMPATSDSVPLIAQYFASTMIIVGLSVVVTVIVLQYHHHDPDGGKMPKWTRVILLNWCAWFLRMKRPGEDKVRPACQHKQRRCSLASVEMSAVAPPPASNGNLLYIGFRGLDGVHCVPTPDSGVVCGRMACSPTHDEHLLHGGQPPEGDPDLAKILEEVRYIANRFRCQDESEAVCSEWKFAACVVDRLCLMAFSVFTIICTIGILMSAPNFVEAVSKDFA
T2 sequence (P17787 whole entry): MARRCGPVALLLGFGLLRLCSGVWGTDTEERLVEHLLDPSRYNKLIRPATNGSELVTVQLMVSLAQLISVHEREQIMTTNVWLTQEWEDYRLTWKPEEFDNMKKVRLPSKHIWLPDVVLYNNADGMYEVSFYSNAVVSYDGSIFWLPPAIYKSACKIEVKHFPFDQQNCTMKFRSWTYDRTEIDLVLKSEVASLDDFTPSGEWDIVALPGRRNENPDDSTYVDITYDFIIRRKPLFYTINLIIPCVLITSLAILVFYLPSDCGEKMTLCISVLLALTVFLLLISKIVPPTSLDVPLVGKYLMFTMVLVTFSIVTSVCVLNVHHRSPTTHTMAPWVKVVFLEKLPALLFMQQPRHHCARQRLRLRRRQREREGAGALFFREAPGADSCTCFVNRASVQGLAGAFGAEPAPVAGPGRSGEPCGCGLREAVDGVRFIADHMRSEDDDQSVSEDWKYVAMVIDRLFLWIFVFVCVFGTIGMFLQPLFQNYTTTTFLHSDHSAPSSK
T2 sequence (P43681 whole entry): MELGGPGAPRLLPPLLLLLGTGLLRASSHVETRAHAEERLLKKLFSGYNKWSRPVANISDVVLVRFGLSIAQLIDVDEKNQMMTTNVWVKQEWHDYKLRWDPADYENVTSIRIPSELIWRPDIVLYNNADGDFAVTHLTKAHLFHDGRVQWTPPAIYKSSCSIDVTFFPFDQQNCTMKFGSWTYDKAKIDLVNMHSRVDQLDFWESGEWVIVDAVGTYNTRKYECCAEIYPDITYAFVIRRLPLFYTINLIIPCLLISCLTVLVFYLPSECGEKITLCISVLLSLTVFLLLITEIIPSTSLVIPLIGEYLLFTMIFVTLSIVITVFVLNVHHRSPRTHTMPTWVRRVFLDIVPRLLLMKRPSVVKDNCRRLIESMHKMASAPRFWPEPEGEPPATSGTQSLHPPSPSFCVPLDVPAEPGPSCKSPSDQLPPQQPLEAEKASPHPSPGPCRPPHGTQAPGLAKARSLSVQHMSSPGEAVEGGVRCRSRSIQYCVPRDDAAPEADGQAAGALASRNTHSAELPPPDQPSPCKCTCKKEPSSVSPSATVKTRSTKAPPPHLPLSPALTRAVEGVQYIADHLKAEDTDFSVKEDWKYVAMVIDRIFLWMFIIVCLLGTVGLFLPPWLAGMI
Chain of Neuronal acetylcholine receptor subunit alpha-7 (Rattus norvegicus, UniProt Q05941) (Q05941 whole entry): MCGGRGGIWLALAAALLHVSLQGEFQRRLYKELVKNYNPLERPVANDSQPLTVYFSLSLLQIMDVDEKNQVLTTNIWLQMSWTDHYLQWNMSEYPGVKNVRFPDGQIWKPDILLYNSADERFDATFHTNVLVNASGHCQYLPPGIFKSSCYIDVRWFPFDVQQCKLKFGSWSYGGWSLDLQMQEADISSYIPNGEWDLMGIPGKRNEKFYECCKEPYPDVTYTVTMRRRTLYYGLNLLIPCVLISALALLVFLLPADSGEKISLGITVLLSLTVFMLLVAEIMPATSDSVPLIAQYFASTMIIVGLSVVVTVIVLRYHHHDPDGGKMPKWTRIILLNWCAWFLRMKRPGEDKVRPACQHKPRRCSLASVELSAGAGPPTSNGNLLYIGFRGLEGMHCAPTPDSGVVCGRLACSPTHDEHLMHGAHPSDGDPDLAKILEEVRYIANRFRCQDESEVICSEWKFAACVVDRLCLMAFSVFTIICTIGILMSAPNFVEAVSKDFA

Row | SMILES | Activity [1] [%] | EC50 [2] [nM] | Ratio Ki [3] | Ki [4] [nM] | Ki [5] [nM] | Activity [6] [%] | EC50 [7] [nM]
1 | c1ccc(-c2ccc(N3C[C@H]4CNC[C@H]4C3)nn2)cc1 | 29 | 1150 | 300 | 5320 | 17.5 | < 10 | > 100000
2 | c1cc(N2C[C@H]3CNC[C@H]3C2)ccn1 | – | – | – | > 10000 | > 10000 | – | –
3 | c1ccc(-c2ccc(N3C[C@H]4CNC[C@H]4C3)cn2)cc1 | – | – | 0.09 | 96 | 8.4 | – | –
4 | CN1C[C@@H]2CN(c3ccc(-c4ccccc4)cn3)C[C@@H]2C1 | – | – | > 6000 | > 100000 | 17 | – | –
5 | CCOc1cncc(N2C[C@H]3CNC[C@H]3C2)c1 | 37 | > 100000 | 41000 | 0.035 | 1440 | 118 | 370
6 | c1ccc(N2C[C@H]3CNC[C@H]3C2)nc1 | – | – | > 38 | 260 | > 10000 | – | –
7 | c1ccc(-c2cncc(N3C[C@H]4CNC[C@H]4C3)c2)cc1 | < 10 | > 100000 | 28000 | 0.16 | 4560 | < 10 | > 100000
8 | C[N+]1(C)C[C@H]2CN(c3ccc(Cl)nc3)C[C@H]2C1 | – | – | 1.6 | 210 | 340 | – | –
9 | CN1C[C@@H]2CN(c3ccc(-c4cccc([N+](=O)[O-])c4)nc3)C[C@@H]2C1 | – | – | 87 | 2600 | 30 | – | –
10 | CN1C[C@@H]2CN(c3cncc(-c4ccccc4)c3)C[C@@H]2C1 | – | – | > 190 | 51 | > 10000 | – | –
11 | CN1C[C@@H]2CN(c3ccc(-c4ccc(O)cc4)nn3)C[C@@H]2C1 | – | – | > 1800 | > 10000 | 5.3 | – | –
12 | CCN1C[C@@H]2CN(c3ccc(-c4ccccc4)nn3)C[C@@H]2C1 | – | – | > 300 | > 100000 | 330 | – | –
13 | Brc1cncc(N2C[C@H]3CNC[C@H]3C2)c1 | – | – | 1100 | 0.06 | 66 | – | –
14 | CN1C[C@@H]2CN(c3ccc(-c4ccccc4)nn3)C[C@@H]2C1 | 52 | 4260 | > 9200 | > 100000 | 10.8 | < 10 | > 100000
15 | CN1C[C@@H]2CN(c3ccc(-c4cccc(O)c4)nn3)C[C@@H]2C1 | – | – | 2660 | 21000 | 7.9 | – | –
16 | COc1cncc(N2C[C@H]3CNC[C@H]3C2)c1 | – | – | 2900 | 0.081 | 240 | – | –
17 | CN1C[C@@H]2CN(c3ccc(-c4ccccc4)nc3)C[C@@H]2C1 | – | – | 0.0003 | 28000 | 9.6 | – | –
18 | CN1C[C@@H]2CN(c3ccc(-c4ccccc4)cc3)C[C@@H]2C1 | – | – | > 8300 | > 100000 | 12 | – | –
19 | COc1cccc(-c2ccc(N3C[C@H]4CN(C)C[C@H]4C3)cn2)c1 | – | – | > 2000 | > 100000 | 5 | – | –
20 | CN1C[C@@H]2CN(c3ccc(Cl)nc3)C[C@@H]2C1 | – | – | > 260 | 38 | > 10000 | – | –

Row | SMILES | Activity [1] [%] | EC50 [2] [nM] | Ratio Ki [3] | Ki [4] [nM] | Ki [5] [nM] | Activity [6] [%] | EC50 [7] [nM]
21 | c1ccc(-c2ccc(N3C[C@H]4CNC[C@H]4C3)cc2)cc1 | – | – | > 350 | > 10000 | 28 | – | –
22 | c1ccc(-c2ccc(N3C[C@H]4CNC[C@H]4C3)nc2)cc1 | – | – | > 3300 | > 100000 | 30 | – | –
23 | CCCOc1cncc(N2C[C@H]3CNC[C@H]3C2)c1 | – | – | > 240000 | 0.041 | > 10000 | – | –
24 | c1cncc(N2C[C@H]3CNC[C@H]3C2)c1 | 129 | 4470 | 420 | 0.12 | 51 | 146 | 40
25 | CN1C[C@@H]2CN(c3cccnc3)C[C@@H]2C1 | – | – | 61 | 26 | 1590 | – | –
26 | CN1C[C@@H]2CN(c3ccc(-c4ccc5[nH]ccc5c4)nn3)C[C@@H]2C1 | 87 | 320 | > 400000 | > 100000 | 0.24 | < 10 | > 100000
27 | Cc1cc(C)cc(-c2ccc(N3C[C@H]4CN(C)C[C@H]4C3)nn2)c1 | – | – | – | > 100000 | > 10000 | – | –
28 | Cc1ccccc1-c1ccc(N2C[C@H]3CN(C)C[C@H]3C2)nn1 | – | – | > 14 | > 10000 | 690 | – | –
29 | Cc1cccc(-c2ccc(N3C[C@H]4CN(C)C[C@H]4C3)nn2)c1 | – | – | > 22000 | > 100000 | 4.42 | – | –
30 | Oc1cncc(N2C[C@H]3CNC[C@H]3C2)c1 | – | – | > 13000 | 0.75 | > 10000 | – | –
31 | Brc1ccc(N2C[C@H]3CNC[C@H]3C2)cn1 | – | – | 1000 | 0.28 | 290 | – | –
32 | CC(C)Oc1cncc(N2C[C@H]3CNC[C@H]3C2)c1 | – | – | > 200000 | 0.051 | > 10000 | – | –
33 | CN1C[C@@H]2CN(c3ccc(-c4cccc(-c5ccccc5)c4)nc3)C[C@@H]2C1 | – | – | 220 | 9800 | 44 | – | –
34 | C[N+]1(C)C[C@H]2CN(c3ccc(-c4ccccc4)nn3)C[C@H]2C1 | – | – | > 1600 | > 10000 | 5.98 | – | –
35 | c1ccc(COc2cncc(N3C[C@H]4CNC[C@H]4C3)c2)cc1 | – | – | > 170000 | 0.058 | > 10000 | – | –
36 | Cc1cccc(-c2ccc(N3C[C@H]4CN(C)C[C@H]4C3)cn2)c1 | – | – | 112 | 750 | 6.7 | – | –
37 | Clc1ccc(N2C[C@H]3CNC[C@H]3C2)cn1 | – | – | 900 | 0.2 | 180 | – | –
38 | COc1ccc(-c2ccc(N3C[C@H]4CN(C)C[C@H]4C3)nn2)cc1 | – | – | > 4500 | > 100000 | 22 | – | –
39 | Cc1ccc(-c2ccc(N3C[C@H]4CN(C)C[C@H]4C3)nn2)cc1 | – | – | > 8600 | > 100000 | 11.6 | – | –
40 | c1ncc(N2C[C@H]3CNC[C@H]3C2)cc1N1CCOCC1 | – | – | > 210 | 47 | > 10000 | – | –
